How the values were obtained:
MCF-7 = assay: MTT cell viability assay MCF-7; type: cell-based, human; settings: 48 h
Experimental: (§1) Cell viability was evaluated using an MTT colorimetric assay. Cells were seeded (10^5 cells/mL) in 96-well plates and allowed to grow overnight at 37 ℃ with 5% CO2 in a cell-culture incubator. On the following day, the cells were treated with small molecules at different concentrations (0.2–10 micro-molar) or vehicle (DMSO). Cells were then further incubated for 48 h.

Panc-2 = assay: MTT cell viability assay Panc-2; type: cell-based; settings: 48 h
Experimental: as §1

HCT-116 = assay: MTT cell viability assay HCT-116; type: cell-based, human; settings: 48 h
Experimental: as §1

A549 = assay: MTT cell viability assay A549; type: cell-based, human; settings: 48 h
Experimental: as §1

JAK3 = molecular target: T1, JAK3 (Homo sapiens, UniProt P52333); assay: Cell-free kinase assay JAK3; type: biochemical; settings: structure-activity statement
T1 construct: purchased Promega Corporation V3701
T1 sequence (P52333 1-1124): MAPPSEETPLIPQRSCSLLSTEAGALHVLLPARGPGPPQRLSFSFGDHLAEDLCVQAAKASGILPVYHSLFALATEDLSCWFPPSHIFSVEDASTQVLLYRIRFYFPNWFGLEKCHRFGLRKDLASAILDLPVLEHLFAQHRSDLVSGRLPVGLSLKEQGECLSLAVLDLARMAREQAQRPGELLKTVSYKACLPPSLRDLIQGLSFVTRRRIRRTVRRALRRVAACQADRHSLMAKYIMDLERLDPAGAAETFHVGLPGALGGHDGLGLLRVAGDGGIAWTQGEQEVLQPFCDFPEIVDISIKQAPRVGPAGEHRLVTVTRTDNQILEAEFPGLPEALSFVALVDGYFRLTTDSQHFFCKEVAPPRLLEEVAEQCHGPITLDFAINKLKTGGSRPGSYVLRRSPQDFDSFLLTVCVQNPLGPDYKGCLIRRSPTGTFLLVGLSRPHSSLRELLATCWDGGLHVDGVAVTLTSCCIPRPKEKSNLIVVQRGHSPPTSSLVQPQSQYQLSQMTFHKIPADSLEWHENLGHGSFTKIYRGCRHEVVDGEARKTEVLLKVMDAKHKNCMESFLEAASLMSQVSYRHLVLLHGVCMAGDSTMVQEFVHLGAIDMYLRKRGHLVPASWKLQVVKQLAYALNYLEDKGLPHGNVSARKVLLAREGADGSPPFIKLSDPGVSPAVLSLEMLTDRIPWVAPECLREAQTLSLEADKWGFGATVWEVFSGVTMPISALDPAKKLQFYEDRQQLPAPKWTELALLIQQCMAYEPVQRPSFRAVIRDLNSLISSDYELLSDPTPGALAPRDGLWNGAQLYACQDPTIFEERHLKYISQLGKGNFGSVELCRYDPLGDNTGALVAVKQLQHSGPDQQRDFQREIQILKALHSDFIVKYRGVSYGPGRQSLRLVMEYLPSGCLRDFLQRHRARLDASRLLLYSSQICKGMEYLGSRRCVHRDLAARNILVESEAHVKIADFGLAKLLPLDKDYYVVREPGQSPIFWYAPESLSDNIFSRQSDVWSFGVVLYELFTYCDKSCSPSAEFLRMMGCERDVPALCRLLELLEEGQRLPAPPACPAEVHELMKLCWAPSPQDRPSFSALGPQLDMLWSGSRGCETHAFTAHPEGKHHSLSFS
Experimental: The cell-free kinase assays of small molecules were determined by following the manufacturer-recommended protocols. Different concentrations in triplicate were used to determine the IC50 value of the hit molecules (active molecules). For data analysis, GraphPad Prism V9.5 Software and a sigmoidal dose–response (variable slope) equation were used. Each value represents an average of three replicates per concentration.

HEK-293 = assay: MTT cell viability assay HEK-293; type: cell-based, human; settings: read-out: IC50 HEK-293; MTT, 48 h; normal cell line
Experimental: as §1

Mia PaCa-2 = assay: MTT cell viability assay Mia PaCa-2; type: cell-based, human; settings: 48 h
Experimental: as §1

Row | SMILES | IC50 (MCF-7) | IC50 (Panc-2) | IC50 (HCT-116) | IC50 (A549) | inhibitory activity against JAK3 in kinase assays and in MTT assays (JAK3) | IC50 (Mia PaCa-2) | IC50 (HEK-293)
1 | c1coc(-c2cnc3[nH]cc(-c4ccnc(NC5CC5)n4)c3c2)c1 [MJ01] | 1.65 µM | 3.16 µM | 1.89 µM | 0.47 µM | significant inhibitory activity | 8.3 µM | > 100 µM
2 | CSc1ccc(-c2cnc3[nH]cc(-c4ccnc(NC5CC5)n4)c3c2)cc1 [MJ02] | 1.83 µM | 4.67 µM | 3.12 µM | 3.13 µM | significant inhibitory activity | 7.1 µM | > 100 µM
3 | CSc1ccccc1-c1cnc2[nH]cc(-c3ccnc(NC4CC4)n3)c2c1 [MJ03] | 10.2 µM | 11 µM | 8.2 µM | 2.88 µM | significant inhibitory activity | 18.1 µM | > 100 µM
4 | Clc1ccc(-c2cnc3[nH]cc(-c4ccnc(NC5CC5)n4)c3c2)cc1 [MJ05] | 4.47 µM | 7.76 µM | 8.72 µM | 3.71 µM | significant inhibitory activity | 6.59 µM | > 100 µM
5 | Fc1cccc(-c2cnc3[nH]cc(-c4ccnc(NC5CC5)n4)c3c2)c1 [MJ06] | 3.31 µM | 7.33 µM | 1.52 µM | 4.31 µM | significant inhibitory activity | 3.66 µM | > 100 µM
6 | Nc1nccc(-c2c[nH]c3ncc(-c4cccc(F)c4)cc23)n1 [MJ07] | 1.38 µM | 3.12 µM | 6.34 µM | 5.55 µM | less active | 3.22 µM | > 100 µM

Second part, led by results:

Row | IC50 (MCF-7) | IC50 (Panc-2) | IC50 (HCT-116) | IC50 (A549) | inhibitory activity against JAK3 in kinase assays and in MTT assays (JAK3) | IC50 (Mia PaCa-2) | SMILES | IC50 (HEK-293)
7 | 6.88 µM | 19.3 µM | 1.18 µM | 5.1 µM | less active | 5.38 µM | Nc1nccc(-c2c[nH]c3ncc(-c4cccc(C(F)(F)F)c4)cc23)n1 [MJ08] | > 100 µM
8 | 11.5 µM | 26.3 µM | 3.22 µM | 5.74 µM | significant inhibitory activity | 2.16 µM | c1cncc(-c2cnc3[nH]cc(-c4ccnc(NCCN5CCOCC5)n4)c3c2)c1 [MJ09] | > 100 µM
9 | 8.61 µM | 33.6 µM | 5.36 µM | 6.99 µM | significant inhibitory activity | 6.71 µM | Fc1ccc(-c2cnc3[nH]cc(-c4ccnc(NCCN5CCOCC5)n4)c3c2)cc1 [MJ10] | > 100 µM

Reference: paper PMC11025159 (Journal of Translational Medicine, 2024)
